{"source": "patent US20240399142A1", "about": "“Methods Of Using Alternating Electric Fields And Checkpoint Inhibitors” (NOVOCURE GMBH, priority 2023, published 2024)", "assay": "LUNAR study safety: adverse events per CTCAE version 4.03, safety population", "type": "in vivo, human", "key": {"[1]": {"conditions": "Grade 5, nervous system disorders"}, "[2]": {"conditions": "Grade 5, renal and urinary disorders"}, "[3]": {"conditions": "Grade 5, respiratory, thoracic, and mediastinal disorders"}, "[4]": {"conditions": "Grade 5, skin and subcutaneous tissue disorders"}}, "procedure": "Safety and treatment data were compiled from all patients who received any study therapy and were analyzed according to the actual treatment received. Analyses were performed using SAS software, version 9.4 (SAS Institute).", "data": [{"compound": "CC(=O)O[C@@]12CO[C@@H]1C[C@H](O)[C@@]1(C)C(=O)[C@H](O)C3=C(C)[C@@H](OC(=O)[C@H](O)[C@@H](NC(=O)OC(C)(C)C)c4ccccc4)C[C@@](O)([C@@H](OC(=O)c4ccccc4)[C@H]21)C3(C)C", "note": "[Docetaxel, docetaxel]", "values": [{"measurement": "Fatigue", "setting": "Grade 5", "value": "0 no. (%)"}, {"measurement": "Febrile neutropenia", "setting": "Grade 5", "value": "0 no. (%)"}, {"measurement": "Femoral neck fracture", "setting": "Grade 5", "value": "0 no. (%)"}, {"measurement": "Forced expiratory volume decreased", "setting": "Grade 5", "value": "0 no. (%)"}, {"measurement": "Gastroenteritis norovirus", "setting": "Grade 5", "value": "0 no. (%)"}, {"measurement": "Gastroenteritis salmonella", "setting": "Grade 5", "value": "0 no. (%)"}, {"measurement": "General physical health deterioration", "setting": "Grade 5", "value": "0 no. (%)"}, {"measurement": "Hematochezia", "setting": "Grade 5", "value": "0 no. (%)"}, {"measurement": "Hepatic enzyme increased", "setting": "Grade 5", "value": "0 no. (%)"}, {"measurement": "Hip fracture", "setting": "Grade 5", "value": "0 no. (%)"}, {"measurement": "Hypercalcemia", "setting": "Grade 5", "value": "0 no. (%)"}, {"measurement": "Hyperglycemia", "setting": "Grade 5", "value": "0 no. (%)"}, {"measurement": "Hyperkalaemia", "setting": "Grade 5", "value": "0 no. (%)"}, {"measurement": "Hypertriglyceridaemia", "setting": "Grade 5", "value": "0 no. (%)"}, {"measurement": "Hypoalbuminemia", "setting": "Grade 5", "value": "0 no. (%)"}, {"measurement": "Hypocalcaemia", "setting": "Grade 5", "value": "0 no. (%)"}, {"measurement": "Hypokalemia", "setting": "Grade 5", "value": "0 no. (%)"}, {"measurement": "Hyponatremia", "setting": "Grade 5", "value": "0 no. (%)"}, {"measurement": "Ileus", "setting": "Grade 5", "value": "0 no. (%)"}, {"measurement": "Infection", "setting": "Grade 5", "value": "0 no. (%)"}, {"measurement": "Intestinal dilatation", "setting": "Grade 5", "value": "0 no. (%)"}, {"measurement": "Intestinal hemorrhage", "setting": "Grade 5", "value": "0 no. (%)"}, {"measurement": "Intestinal perforation", "setting": "Grade 5", "value": "0 no. (%)"}, {"measurement": "Large intestine perforation", "setting": "Grade 5", "value": "0 no. (%)"}, {"measurement": "Leukopenia", "setting": "Grade 5", "value": "0 no. (%)"}, {"measurement": "Liver disorder", "setting": "Grade 5", "value": "0 no. (%)"}, {"measurement": "Localized oedema", "setting": "Grade 5", "value": "0 no. (%)"}, {"measurement": "Lung abscess", "setting": "Grade 5", "value": "0 no. (%)"}, {"measurement": "Lymphocyte count decreased", "setting": "Grade 5", "value": "0 no. (%)"}, {"measurement": "Lymphopenia", "setting": "Grade 5", "value": "0 no. (%)"}, {"measurement": "Malignant ascites", "setting": "Grade 5", "value": "0 no. (%)"}, {"measurement": "Malignant pleural effusion", "setting": "Grade 5", "value": "0 no. (%)"}, {"measurement": "Malnutrition", "setting": "Grade 5", "value": "0 no. (%)"}, {"measurement": "Metastases to bone", "setting": "Grade 5", "value": "0 no. (%)"}, {"measurement": "Metastases to central nervous system", "setting": "Grade 5", "value": "0 no. (%)"}, {"measurement": "Metastases to meninges", "setting": "Grade 5", "value": "0 no. (%)"}, {"measurement": "Mouth ulceration", "setting": "Grade 5", "value": "0 no. (%)"}, {"measurement": "Mucosal inflammation", "setting": "Grade 5", "value": "0 no. (%)"}, {"measurement": "Multiple organ dysfunction syndrome", "setting": "Grade 5", "value": "0 no. (%)"}, {"measurement": "Muscular weakness", "setting": "Grade 5", "value": "0 no. (%)"}, {"measurement": "Myalgia", "setting": "Grade 5", "value": "0 no. (%)"}, {"measurement": "Myocardial infarction", "setting": "Grade 5", "value": "0 no. (%)"}, {"measurement": "Nausea", "setting": "Grade 5", "value": "0 no. (%)"}, {"measurement": "Neck pain", "setting": "Grade 5", "value": "0 no. (%)"}, {"measurement": "Neutropenia", "setting": "Grade 5", "value": "0 no. (%)"}, {"measurement": "Neutrophil count decreased", "setting": "Grade 5", "value": "0 no. (%)"}, {"measurement": "Non-cardiac chest pain", "setting": "Grade 5", "value": "0 no. (%)"}, {"measurement": "Oedema peripheral", "setting": "Grade 5", "value": "0 no. (%)"}, {"measurement": "Oral candidiasis", "setting": "Grade 5", "value": "0 no. (%)"}, {"measurement": "Pancreatic failure", "setting": "Grade 5", "value": "0 no. (%)"}, {"measurement": "Pancreatitis", "setting": "Grade 5", "value": "0 no. (%)"}, {"measurement": "Pericardial effusion", "setting": "Grade 5", "value": "0 no. (%)"}, {"measurement": "Peripheral sensory", "setting": "Grade 5", "value": "0 no. (%)"}, {"measurement": "Platelet count decreased", "setting": "Grade 5", "value": "0 no. (%)"}, {"measurement": "Pneumonia", "setting": "Grade 5", "value": "0 no. (%)"}, {"measurement": "Pneumonia pseudomonal", "setting": "Grade 5", "value": "0 no. (%)"}, {"measurement": "Pneumonia staphylococcal", "setting": "Grade 5", "value": "0 no. (%)"}, {"measurement": "Pyelonephritis", "setting": "Grade 5", "value": "0 no. (%)"}, {"measurement": "Pyopneumothorax", "setting": "Grade 5", "value": "0 no. (%)"}, {"measurement": "Pyrexia", "setting": "Grade 5", "value": "0 no. (%)"}, {"measurement": "Refeeding syndrome", "setting": "Grade 5", "value": "0 no. (%)"}, {"measurement": "Respiratory tract infection", "setting": "Grade 5", "value": "0 no. (%)"}, {"measurement": "Right ventricular failure", "setting": "Grade 5", "value": "0 no. (%)"}, {"measurement": "Sepsis", "setting": "Grade 5", "value": "0 no. (%)"}, {"measurement": "Septic shock", "setting": "Grade 5", "value": "0 no. (%)"}, {"measurement": "Skin infection", "setting": "Grade 5", "value": "0 no. (%)"}, {"measurement": "Stomatitis", "setting": "Grade 5", "value": "0 no. (%)"}, {"measurement": "Subileus", "setting": "Grade 5", "value": "0 no. (%)"}, {"measurement": "Thrombocytopenia", "setting": "Grade 5", "value": "0 no. (%)"}, {"measurement": "Thyroiditis subacute", "setting": "Grade 5", "value": "0 no. (%)"}, {"measurement": "Tumor pain", "setting": "Grade 5", "value": "0 no. (%)"}, {"measurement": "Upper respiratory tract infection", "setting": "Grade 5", "value": "0 no. (%)"}, {"measurement": "Urinary tract infection", "setting": "Grade 5", "value": "0 no. (%)"}, {"measurement": "Urosepsis", "setting": "Grade 5", "value": "0 no. (%)"}, {"measurement": "Vomiting", "setting": "Grade 5", "value": "0 no. (%)"}, {"measurement": "Weight decreased", "setting": "Grade 5", "value": "0 no. (%)"}, {"measurement": "White blood cell count decreased", "setting": "Grade 5", "value": "0 no. (%)"}, {"measurement": "Brain oedema", "setting": "[1]", "value": "0 no. (%)"}, {"measurement": "Cauda equina syndrome", "setting": "[1]", "value": "0 no. (%)"}, {"measurement": "Dysarthria", "setting": "[1]", "value": "0 no. (%)"}, {"measurement": "Hemiparesis", "setting": "[1]", "value": "0 no. (%)"}, {"measurement": "Motor dysfunction", "setting": "[1]", "value": "0 no. (%)"}, {"measurement": "Nervous system disorder", "setting": "[1]", "value": "0 no. (%)"}, {"measurement": "Neurologic neglect syndrome", "setting": "[1]", "value": "0 no. (%)"}, {"measurement": "Peripheral sensorimotor neuropathy", "setting": "[1]", "value": "0 no. (%)"}, {"measurement": "Quadriparesis", "setting": "[1]", "value": "0 no. (%)"}, {"measurement": "Seizure", "setting": "[1]", "value": "0 no. (%)"}, {"measurement": "Syncope", "setting": "[1]", "value": "0 no. (%)"}, {"measurement": "Vocal cord paralysis", "setting": "[1]", "value": "0 no. (%)"}, {"measurement": "Anxiety", "setting": "Grade 5, psychiatric disorders", "value": "0 no. (%)"}, {"measurement": "Confusional state", "setting": "Grade 5, psychiatric disorders", "value": "0 no. (%)"}, {"measurement": "Mental status changes", "setting": "Grade 5, psychiatric disorders", "value": "0 no. (%)"}, {"measurement": "Acute kidney injury", "setting": "[2]", "value": "0 no. (%)"}, {"measurement": "Urinary retention", "setting": "[2]", "value": "0 no. (%)"}, {"measurement": "Acute respiratory failure", "setting": "[3]", "value": "2 (2.9) no. (%)"}, {"measurement": "Atelectasis", "setting": "[3]", "value": "0 no. (%)"}, {"measurement": "Bronchial obstruction", "setting": "[3]", "value": "0 no. (%)"}, {"measurement": "Bronchopleural fistula", "setting": "[3]", "value": "0 no. (%)"}, {"measurement": "Chronic obstructive pulmonary disease", "setting": "[3]", "value": "0 no. (%)"}, {"measurement": "Cough", "setting": "[3]", "value": "0 no. (%)"}, {"measurement": "Dyspnoea", "setting": "[3]", "value": "0 no. (%)"}, {"measurement": "Esophago-bronchial fistula", "setting": "[3]", "value": "0 no. (%)"}, {"measurement": "Hemoptysis", "setting": "[3]", "value": "0 no. (%)"}, {"measurement": "Hypoxia", "setting": "[3]", "value": "0 no. (%)"}, {"measurement": "Interstitial lung disease", "setting": "[3]", "value": "0 no. (%)"}, {"measurement": "Pleural effusion", "setting": "[3]", "value": "0 no. (%)"}, {"measurement": "Pneumonia aspiration", "setting": "[3]", "value": "0 no. (%)"}, {"measurement": "Pneumonitis", "setting": "[3]", "value": "0 no. (%)"}, {"measurement": "Pulmonary embolism", "setting": "[3]", "value": "0 no. (%)"}, {"measurement": "Pulmonary hemorrhage", "setting": "[3]", "value": "0 no. (%)"}, {"measurement": "Respiratory failure", "setting": "[3]", "value": "1 (1.5) no. (%)"}, {"measurement": "Alopecia", "setting": "[4]", "value": "0 no. (%)"}, {"measurement": "Dermatitis exfoliative", "setting": "[4]", "value": "0 no. (%)"}, {"measurement": "Pruritus", "setting": "[4]", "value": "0 no. (%)"}, {"measurement": "Rash", "setting": "[4]", "value": "0 no. (%)"}, {"measurement": "Rash erythematous", "setting": "[4]", "value": "0 no. (%)"}, {"measurement": "Rash maculopapular", "setting": "[4]", "value": "0 no. (%)"}, {"measurement": "Skin erosion", "setting": "[4]", "value": "0 no. (%)"}, {"measurement": "Skin reaction", "setting": "[4]", "value": "0 no. (%)"}, {"measurement": "Skin toxicity", "setting": "[4]", "value": "0 no. (%)"}, {"measurement": "Deep vein thrombosis", "setting": "Grade 5, vascular disorders", "value": "0 no. (%)"}, {"measurement": "Embolism", "setting": "Grade 5, vascular disorders", "value": "0 no. (%)"}, {"measurement": "Hypertension", "setting": "Grade 5, vascular disorders", "value": "0 no. (%)"}, {"measurement": "Jugular vein thrombosis", "setting": "Grade 5, vascular disorders", "value": "0 no. (%)"}, {"measurement": "Peripheral arterial occlusive disease", "setting": "Grade 5, vascular disorders", "value": "0 no. (%)"}, {"measurement": "Vena cava embolism", "setting": "Grade 5, vascular disorders", "value": "0 no. (%)"}, {"measurement": "Anemia", "setting": "Grade ≥3", "value": "8 (11.8) no. (%)"}, {"measurement": "Any adverse event", "setting": "Grade ≥3", "value": "43 (63.2) no. (%)"}, {"measurement": "Neutropenia", "setting": "Grade ≥3", "value": "11 (16.2) no. (%)"}, {"measurement": "COVID-19 pneumonia", "setting": "human, in vivo", "value": "0 no. (%)"}, {"measurement": "Herpes zoster", "setting": "human, in vivo", "value": "0 no. (%)"}, {"measurement": "Adverse event leading to death", "setting": "human, in vivo, 75 mg/m2", "value": "4 (5.9) no. (%)"}, {"measurement": "Adverse event leading to discontinuation", "setting": "in vivo", "value": "1 (1.5) no. (%)"}, {"measurement": "Serious adverse event", "setting": "in vivo", "value": "28 (41.2) no. (%)"}, {"measurement": "patients who discontinued therapy due to intolerable toxicity", "setting": "in vivo", "value": "four"}]}]}
